For orientation: IC50 means the concentration that inhibits the measured activity by half. One may read the inhibition as the drop in the measured response relative to a control, in per cent. What is called MIC is the lowest concentration that inhibits growth of the organism.

This is an account of results in patent US12286452B2, “Amphiphilic aminoglycoside connexin hemichannel inhibitors” (Texas Tech University System, priority 2018, dated 2025).

≈ marks a conversion by molar mass, not a printed value. Where two headings read alike, the source gives them in different places.

Experiment [1] addresses T1, Cx43 HCs (Homo sapiens, UniProt P17302).
T1 construct: expressed in transfected cells
The settings on record: cited from earlier work.

For experiment [2], the target named is T1, Cx43 HCs. The experiment is described as follows: Cx43-dependent growth complementation assay in E. coli LB2003. The settings on record: for Cx43/Cx26 Selectivity: IC50 Cx26/IC50 Cx43. It is filed as cell-based.
Experiment [3] has as its target T2, human Cx26 HCs (Homo sapiens, UniProt P29033).
T2 construct: expressed in transfected cells; host or cells: E. coli LB2003 (carrying pREP4), transformed with pQE-Cx26, IPTG-induced
The experiment is described as follows: Cx26-dependent growth complementation assay in E. coli LB2003. The experiment is classed as cell-based. Here is the method:
These derivatives were prepared by sequential benzylation and methylation followed by reduction of azido groups or hydrogenolysis of the Bn. […] Connexin HC inhibition was conducted using a bacteria-based assay of HC function^39. In this assay, Cx26 HCs are expressed in E. coli LB2003 cells, which lack three major K^+ uptake systems (Kdp, Kup and Trk), and as a result they cannot grow in low-[K^+] media^39-41. However, growth of this E. coli strain in low-[K^+] medium can be rescued by expression of K^+-permeable channels such as connexin HCs^39, 42-43. Under the conditions of the assay (LB2003 cells expressing HCs and grown in low-K^+ medium), inhibition of the HCs reduces or abolishes growth^39, 42-43. This is a simple assay where bacterial growth in multi-well plates can be followed by measuring the absorbance at 600 nm (OD600)^29.
LB2003 cells generously provided by Dr. E. P. Bakker (Osnabruk University, Osnabruk, Germany) were transformed with the plasmid pQE-Cx26 (human Cx26 into pQE60) and pREP4. […] LB2003 cells cannot grow in low-[K^+] media because of insufficient K^+ uptake for growth due to the knockout of three key K^+ transporters (Atrk, Akup, Akdp strain)^2-4. Details and validation of the growth complementation assay have been published recently^2. In brief, competent LB2003 containing the pREP4 plasmid were transformed with pQE-Cx26. These cells were grown overnight in Luria-Bertani medium (BD, Franklin Lakes, NJ, USA) supplemented with 100 mM KCl (to allow growth) and 0.4 mg/mL ampicillin, and then washed four times with NLM (see below), to remove residual K^+ from the Luria-Bertani medium. The washed cells were resuspended in complementation growth medium to an OD600 of 0.2. NLM contained 46 mM Na2HPO4, 23 mM NaH2PO4, 8 mM (NH4)2SO4, 0.4 mM MgSO4, 0.012 mM FeSO4, 1 mM sodium citrate, 44 mM glucose and 0.006 mM thiamine hydrochloride, pH 7.0. KLM had the same composition that NLM except for the equimolar replacement of Na^+ with K^+. For growth complementation we used NLM+4 mM KCl, and Cx26 expression was induced with 0.5 mM IPTG at the time of dilution to OD600=0.2. For the assay, the cells were seeded in 96-well plates and were incubated at 30° C., with shaking at 500 rpm. OD600 was measured after 18-h incubation in a plate reader. The initial OD600=0.2 was subtracted for growth calculations. Data are presented as means±SEM. Statistically significant differences were calculated by the Student t-test for unpaired data. Data were obtained from at least 3 independent experiments, with 3 repeats per experiment.

In experiment [4] the test system is Staphylococcus aureus (ATCC25923). The experiment is described as follows: Antibacterial assay (MIC). It is filed as cell-based. The note with it: read-out: MIC against S. aureus. The protocol:
Antibacterial assay: The minimum inhibitory concentration (MIC) of the newly synthesized compounds was tested against E. coli (ATCC 25922) and Staphylococcus aureus (ATCC25923). The concentration of bacteria grown in Lysogeny Broth (LB) was adjusted to an absorbance at 600 nm (OD600) of 0.08-0.1 using LB. A series of 2-fold dilutions was made for each compound in 96-well plates (USA Scientific CC7682-7596) starting from 256 μg/mL, and then, 50 μL of the diluted bacteria suspension was transferred to the wells. Bacteria were incubated for 18-24 h at 35° C. before measuring OD600 to assess growth. Experiments for each compound were done at least in duplicates.

Experiment [5] deals with T2, human Cx26 HCs. The settings on record: commercial aminoglycosides, the 16th table, adapted from ref. 1; cited from earlier work.
Where [6] appears, read: Table 3, read-out: Cx243% inhibition.
Setting [7] is: K46 members, the 20th table, read-out: IC50 (μM) against Cx43.
Setting [8] is: first Table 2, read-out: IC50, inhibition of Cx26 by synthetic AGs.
The mark [9] stands for this setting: commercial aminoglycosides, the 16th table, adapted from ref. 1, read-out: Cx43 IC50.
Setting [10] is: KI members, the 23rd table, read-out: Cx43 % inhibition.
The mark [11] stands for this setting: Table 6, read-out: Cx43 (% inhibition).

T1 sequence (P17302 whole entry): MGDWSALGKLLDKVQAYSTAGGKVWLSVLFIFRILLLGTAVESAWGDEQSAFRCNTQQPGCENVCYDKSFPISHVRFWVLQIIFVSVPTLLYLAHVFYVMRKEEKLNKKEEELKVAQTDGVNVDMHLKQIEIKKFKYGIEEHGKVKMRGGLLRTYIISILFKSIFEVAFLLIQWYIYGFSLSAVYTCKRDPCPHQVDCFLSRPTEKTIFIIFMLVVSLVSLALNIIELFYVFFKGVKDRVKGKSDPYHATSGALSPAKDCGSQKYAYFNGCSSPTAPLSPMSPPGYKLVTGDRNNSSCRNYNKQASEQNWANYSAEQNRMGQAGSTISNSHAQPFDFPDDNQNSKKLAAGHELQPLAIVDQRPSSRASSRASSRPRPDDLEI

For the compound `NCC1O[C@H](OC2C(N)CC(N)C(OC3O[C@H](CO)C(O)C(N)[C@H]3O)C2O)C(O)[C@@H](O)[C@@H]1O` (stereo in doubt) [Kanamycin A, reference compound], at Cx43 HCs [1] (approximate, text b120, read-out: IC50 for inhibition of Cx43 HCs), the IC50 is approximately 50 µM. At Cx43 HCs [2] (setting [6]), the inhibition at 15 µM worked out at 15.6 ± 1.4% and the inhibition at 50 µM stood at 40.4 ± 1%. Further, at human Cx26 HCs [3] (Table 3), 15 µM produced 49.7 ± 1.6% inhibition and 50 µM produced 77.4 ± 1.8% inhibition.

On to `NCC1OC(OC2C(N)CC(N)C(OC3OC(COCc4cccc5ccccc45)C(OCc4cccc5ccccc45)C(N)C3O)C2O)C(O)C(O)C1O` (stereo not shown) [Compound 15, 4″,6″-Di-O-(1-naphthalenmethyl) kanamycin], for which, in experiment [4], the MIC is 64 mg/mL (≈ 83.7 mM). The IC50 on Cx43 HCs [2] (setting [7]) amounted to 15 µM; on Cx43 HCs [2] (the 12th table, Hill fit, mean ± SEM, some n = 1, read-out: Cx43 IC50), 15 µM; on human Cx26 HCs [3] (setting [8]) it was 6.6 ± 0.5 µM. Also, the “Cx43 Imax (maximal inhibition)” value at Cx43 HCs [2] (the 12th table, Hill fit) came out at 122%.

As to `NCC1OC(OC2C(N)CC(N)C(OC3OC(COCc4cccc(-c5ccccc5)c4)C(OCc4cccc(-c5ccccc5)c4)C(N)C3O)C2O)C(O)C(O)C1O` (stereo not shown) [Compound 16, 4″,6″-Di-O-(3-phenylbenzyl)-kanamycin], in experiment [4], the MIC was determined as 16 mg/mL (≈ 19.6 mM). The IC50 worked out at 5.5 ± 2 µM at Cx43 HCs [2] (setting [7]); 5.5 ± 2 µM on Cx43 HCs [2] (the 13th table, read-out: Cx43 IC50); 6.2 ± 0.7 µM on human Cx26 HCs [3] (setting [8]). The “Cx43 Imax” value at Cx43 HCs [2] (the 13th table) was 121 ± 25%. At human Cx26 HCs [3] (the 13th table), the “Cx26 Imax” value amounted to 102 ± 2%.

`CN[C@@H]1[C@@H](O)[C@@H](O[C@@H]2[C@@H](O)[C@H](O[C@H]3O[C@H]([C@@H](C)O)[C@@H](O)[C@H](O)[C@H]3N)[C@@H](N)C[C@H]2N)OC[C@]1(C)O` [Compound G418, G418]: the IC50 was 3 ± 0.8 µM at Cx43 HCs [1] (setting [9]) and 0.44 ± 0.06 µM on human Cx26 HCs [5]. Further, the “Cx43/Cx26 Selectivity” value on Cx43 HCs [2] (the 16th table) is given as 0.20.

In the case of `NC1CC(N)C(O[C@H]2OC(CNC(=O)c3ccccc3-c3c4ccc(=O)cc-4oc4ccc(O)cc34)[C@@H](O)C(O)C2O)[C@H](O)C1OC1O[C@H](CO)C(O)C(N)[C@H]1O` (stereo partly shown) [KI10], the inhibition at 15 µM is 56.8 ± 8.8% at Cx43 HCs [2] (setting [10]); 56.8 ± 8.8% at Cx43 HCs [2] (setting [6]); more than 50% on Cx43 HCs [2] (setting [11]); 22.3 ± 6.9% against human Cx26 HCs [3] (Table 3); 22.3 ± 6.9% against human Cx26 HCs [3] (Table 6). The inhibition at 50 µM at Cx43 HCs [2] (setting [10]) stood at 83.4 ± 1.1%; on Cx43 HCs [2] (setting [6]) it was 83.4 ± 1.1%; on Cx43 HCs [2] (setting [11]), 83.4 ± 1.1%; against human Cx26 HCs [3] (Table 3), 79.6 ± 3.5%; on human Cx26 HCs [3] (Table 6), 79.6 ± 3.5%. The “Cx43/Cx26 Selectivity” value on Cx43 HCs [2] (Table 7) is on record as 1.42. Also, the IC50 at Cx43 HCs [2] (Table 7, read-out: Cx43 IC50) came to 8.9 ± 3.7 µM; at human Cx26 HCs [3] (Table 7, read-out: Cx26 IC50), 12.7 ± 2.2 µM.

As to `NC[C@H]1O[C@H](O[C@H]2[C@H](O)[C@@H](O[C@H]3O[C@H](CO)[C@@H](O)[C@H](N)[C@H]3O)[C@H](N)C[C@@H]2N)[C@H](N)[C@@H](O)[C@@H]1O` [Kanamycin B], the figures for the IC50 at Cx43 HCs [1] (setting [9]) and at human Cx26 HCs [5] were 24 ± 2 µM and 3.6 ± 0.9 µM, respectively. At Cx43 HCs [2] (the 16th table), the “Cx43/Cx26 Selectivity” value is recorded as 0.15.

As for `NC[C@H]1O[C@H](O[C@H]2[C@H](O[C@@H]3O[C@H](CO)[C@@H](O)[C@H]3O)[C@@H](O)[C@H](N)C[C@@H]2N)[C@H](N)[C@@H](O)[C@@H]1O` [Ribostamycin], the IC50 on Cx43 HCs [1] (setting [9]) is more than 200 µM; at human Cx26 HCs [5], more than 100 µM.

On to Neomycin, for which the IC50 at Cx43 HCs [1] (setting [9]) is 45 ± 9 µM; on human Cx26 HCs [5], 7.4 ± 1.3 µM. The “Cx43/Cx26 Selectivity” value at Cx43 HCs [2] (the 16th table) was 0.16.
